Measured values published in patent US11519859B2, “Rhodol-based thallium sensors for high-throughput screening of potassium channels” (priority 2018, dated 2022).

Experiments:
[1] = Determination of photochemical properties of saponified dyes; format: physicochemical; settings: for λmax (absorption maximum) / ε (molar absorptivity) / λem (fluorescence emission maximum): after saponification, 150 mM KCl, 10 mM HEPES, 50 μM EDTA, pH = 7.22; for ε (molar absorptivity): at λmax
Protocol: Evaluation of the photochemical properties of the active Thallium sensing species was accomplished by saponifying 10 μL of each pro-dye stock solution by incubating with 90 μL of 0.1 M KOH for 20 min at 37° C. with the exception of 8b which was treated with 1% NH4OH for 1 h at 37° C. The saponified compounds were diluted into 150 mM KCl buffered with 10 mM HEPES, pH=7.22 with 50 μM of EDTA. All photochemical measurements were taken in this buffer. Absorbance and fluorescence emission spectra were recorded on a Molecular Devices Spectromax M5 using polystyrene cuvettes with path length=1 cm at 23° C. Molar absorptivities are reported for λmax. The emission wavelengths monitored for recording excitation spectra, the excitation wavelengths used for recording emission spectra, and the corresponding emission cutoff filters used are listed in Table 2 below, and representative excitation and emission spectra are shown in FIG. 7.
To determine the in vitro photochemical properties of the active Tl^+ sensing species, 8a-m were treated with base to remove the acetoxymethyl esters and aryl acetate and then diluted into 10 mM HEPES buffered 150 mM KCl with 50 μM EDTA at pH=7.22.

[2] = system: HEK-293 cells co-expressing GIRK1 and GIRK2; settings: dye loading 1 h, 1 mM Tl^+ stimulus; for on/off (Tl^+ flux assay), maximum fold increase in fluorescence after Tl^+ addition: 10 μM ML297, 2 mM Allura Red AC, n = 6
Protocol: HEK-293 cells co-expressing GIRK1 and GIRK2 were cultured to 80% confluence in a T75 flask (Techno Plastic Products, Trasadingen, CH) at 37° C. and 5% CO2 in medium consisting of Minimal Essential Medium (Cellgro, Manassas, Va.) containing 1× Glutagro (Cellgro, Manassas, Va.) and 10% (v/v) heat-inactivated fetal bovine serum (Life Technologies, Carlsbad, Calif.). The cells were dislodged by treatment with TrypLE (Gibco/Life Technologies, Carlsbad, Calif.), diluted in medium, and plated on clear bottomed, black-walled, amine coated 384 well plates (BD Biosciences, Billerica, Mass.) at a density ˜20,000 cells per well. The plated cells were incubated overnight at 37° C. and 5% CO2 and used for the assay the next day.
Dye loading solutions of Thallos were prepared by dissolving a 25 μg aliquot in 30 μL of 6.7% Pluoronic F-127 (w/v) in DMSO and diluting the resulting solution 1:1000 into assay buffer. Culture medium was removed and replaced with 20 μL of dye loading buffer and incubated in the dark at room temperature for 1 h.
Assay—Assays were conducted on a WaveFront Biosciences Panoptic 1 or 2 (WaveFront Biosciences, Franklin, Tenn.) as indicated. Dye loading solutions were removed and replaced with assay buffer immediately before imaging unless otherwise noted. 10 s following commencement of plate imaging, 20 μL of compound at 2.5× concentration in assay buffer was added and incubated for 120 s at which point 10 μL of Tl^+ at 5× concentration in stimulus buffer (125 mM NaHCO3, 1.8 mM CaSO4, 1 mM MgSO4, 5 mM glucose, 10 mM HEPES, pH 7.4, and T12SO4), and images taken for the following 120 s.
1 mM of T12SO4 (final concentration) was used for stimulus. Assay and stimulus buffers were supplemented with 2 mM of Allura Red AC. […] On/off ratios were calculated by dividing the fluorescence intensity after saturation following Tl^+ addition by the fluorescence intensity immediately after compound addition (n=6).

[3] = biological target: T1, GIRK1 and GIRK2 (Homo sapiens, UniProt P48051+P48549); experiment: ML297 concentration response curves by Tl+ flux assay; format: cell-based
T1 construct: expressed in transfected cells; host or cells: HEK-293
T1 sequence (P48549 1-501): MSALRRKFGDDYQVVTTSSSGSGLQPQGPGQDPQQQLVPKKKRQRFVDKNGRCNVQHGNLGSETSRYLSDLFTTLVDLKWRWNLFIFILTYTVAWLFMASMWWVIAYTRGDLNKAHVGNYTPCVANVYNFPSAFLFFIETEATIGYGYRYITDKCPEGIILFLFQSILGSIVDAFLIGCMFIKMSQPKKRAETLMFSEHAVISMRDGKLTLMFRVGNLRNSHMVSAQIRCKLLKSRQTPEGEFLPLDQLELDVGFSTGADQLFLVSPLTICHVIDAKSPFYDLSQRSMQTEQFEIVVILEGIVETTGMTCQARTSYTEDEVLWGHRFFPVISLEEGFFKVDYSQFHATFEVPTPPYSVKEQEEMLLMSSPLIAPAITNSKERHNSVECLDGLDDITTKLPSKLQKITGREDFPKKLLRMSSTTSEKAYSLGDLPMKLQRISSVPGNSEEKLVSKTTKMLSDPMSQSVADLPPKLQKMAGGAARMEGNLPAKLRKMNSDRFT
T1 sequence (P48051 1-423): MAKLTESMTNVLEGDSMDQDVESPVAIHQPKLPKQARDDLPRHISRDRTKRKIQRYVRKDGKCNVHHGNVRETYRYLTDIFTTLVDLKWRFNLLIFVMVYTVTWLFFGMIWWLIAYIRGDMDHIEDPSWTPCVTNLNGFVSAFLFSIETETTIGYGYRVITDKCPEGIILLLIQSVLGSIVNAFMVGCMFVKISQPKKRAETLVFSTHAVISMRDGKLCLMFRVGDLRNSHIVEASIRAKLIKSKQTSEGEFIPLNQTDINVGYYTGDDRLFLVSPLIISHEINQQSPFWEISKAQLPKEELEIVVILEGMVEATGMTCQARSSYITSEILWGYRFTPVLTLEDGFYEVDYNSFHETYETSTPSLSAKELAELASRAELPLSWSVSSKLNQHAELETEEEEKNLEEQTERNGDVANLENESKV
From the text: ML297 concentration response curves—In general, all concentration-response data were collected on a WaveFront Biosciences Panoptic 2. Thallos treated cells were imaged using 482/35 nm excitation and 536/40 nm emission filters. 8c treated cells were imaged using 529/24 nm excitation and 565/24 nm emission filters (unless otherwise noted). FluxOR Red treated cells were imaged using 544/24 nm excitation and 593/40 nm emission filters (all filters purchased from Semrock, Rochester, N.Y.). FluxOR Red reagent was prepared according to the manufacturer's procedure. 5 μM of 8c was used for dye loading for all conditions.
FluxOR Red procedure with background suppressor. The manufacturer's procedure was followed with the exceptions that the dye loading solution was replaced with 20 μL of assay buffer, solutions of ML297 were prepared in assay buffer plus background suppressor, 20 μL of compound solution was added and 10 μL stimulus buffer (basal) was added according to the general assay protocol described above.
FluxOR Red procedure without background suppressor. The FluxOR Red manufacturer's procedure was followed except the background suppressor was replaced by H2O in all buffers.
Bicarbonate buffer with Allura Red AC. The assay and stimulus buffers described in the general Tl^+ flux procedure were used for dye loading, assay buffer with ML297, and stimulus buffer. All buffers were supplemented with 1 mM of Allura Red AC. The wash step to remove dye loading buffer was omitted.
Bicarbonate buffer without Allura Red AC. The general Tl^+ flux procedure was followed without any solutions supplemented with Allura Red AC.
The fluorescence intensity values of the first 6 time points for each well were averaged and the fluorescence intensity for all time points in the well was divided by this value to provide F/Fo for each time point. The average F/Fo of the vehicle control was then subtracted from each curve and the normalized, control subtracted fluorescence intensity value was sampled at a time point several seconds after Tl^+ addition. […] Fold increases in fluorescence reported in the main paper were calculated by averaging F/Fo between 100 and 110 s after Tl^+ addition. Data presented in FIG. 3 and FIG. 6 were obtained using 8c with the FluxOR Red kit as described above under the FluxOR Red with background suppressor procedure.
The performance of 8c was evaluated in a Tl^+ flux assay to generate a concentration response curve (CRC) of the GIRK activator ML297. […] Normalized, control subtracted fluorescence intensity values were sampled along the curves following Tl^+ addition at each concentration and a CRC was fit using GraphPad Prism (FIG. 3B).

| SMILES | λmax (absorption maximum) [1] [nm] | ε (molar absorptivity) [1] [M⁻¹ cm⁻¹] | λem (fluorescence emission maximum) [1] [nm] | on/off (Tl^+ flux assay), maximum fold increase in fluorescence after Tl^+ addition [2] [fold] | also measured |
| --- | --- | --- | --- | --- | --- |
| COc1cc(NC(=O)c2ccc3c(c2)C(=O)OC32c3ccc(NC(C)=O)cc3Oc3cc(OC(C)=O)ccc32)ccc1N(CC(=O)OCOC(C)=O)CC(=O)OCOC(C)=O (centres unmarked) [Compound 8b, bis(acetoxymethyl) 2,2′-((4-(3′-acetamido-6′-acetoxy-3-oxo-3H-spiro[isobenzofuran-1,9′-xanthen]-5-ylcarboxamido)-2-methoxyphenyl)azanediyl)diacetate] | 463 | 24000 | – | – | fluorescence of saponified dye (in words) ([1]; reason why spectra were not recorded): very weak fluorescence; fluorescence and response to Tl^+ in cells (in words) [2]: Fluorescence was not detected |
| CCN(CC)c1ccc2c(c1)Oc1cc(OC(C)=O)ccc1C21OC(=O)c2cc(C(=O)Nc3ccc(N(CC(=O)OCOC(C)=O)CC(=O)OCOC(C)=O)c(OC)c3)ccc21 (centres unmarked) [Compound 8d, bis(acetoxymethyl) 2,2′-((4-(3′-acetoxy-6′-(diethylamino)-3-oxo-3H-spiro[isobenzofuran-1,9′-xanthen]-5-ylcarboxamido)-2-methoxyphenyl)azanediyl)diacetate] | 525 | 55000 | 551 | 3.28 ± 0.04 | – |
| CCCN(CCC)c1ccc2c(c1)Oc1cc(OC(C)=O)ccc1C21OC(=O)c2cc(C(=O)Nc3ccc(N(CC(=O)OCOC(C)=O)CC(=O)OCOC(C)=O)c(OC)c3)ccc21 (centres unmarked) [Compound 8e, bis(acetoxymethyl) 2,2′-((4-(3′-acetoxy-6′-(dipropylamino)-3-oxo-3H-spiro[isobenzofuran-1,9′-xanthen]-5-ylcarboxamido)-2-methoxyphenyl)azanediyl)diacetate] | 527 | 66000 | 553 | 2.94 ± 0.08 | – |
| CCCCN(CCCC)c1ccc2c(c1)Oc1cc(OC(C)=O)ccc1C21OC(=O)c2cc(C(=O)Nc3ccc(N(CC(=O)OCOC(C)=O)CC(=O)OCOC(C)=O)c(OC)c3)ccc21 (centres unmarked) [Compound 8f, bis(acetoxymethyl) 2,2′-((4-(3′-acetoxy-6′-(dibutylamino)-3-oxo-3H-spiro[isobenzofuran-1,9′-xanthen]-5-ylcarboxamido)-2-methoxyphenyl)azanediyl)diacetate] | 528 | 58000 | 556 | 1.52 ± 0.01 | – |
| COc1cc(NC(=O)c2ccc3c(c2)C(=O)OC32c3ccc(NC4CCCCC4)cc3Oc3cc(OC(C)=O)ccc32)ccc1N(CC(=O)OCOC(C)=O)CC(=O)OCOC(C)=O (centres unmarked) [Compound 8g, bis(acetoxymethyl) 2,2′-((4-(3′-acetoxy-6′-(cyclohexylamino)-3-oxo-3H-spiro[isobenzofuran-1,9′-xanthen]-5-ylcarboxamido)-2-methoxyphenyl)azanediyl)diacetate] | 514 | 57000 | 535 | 4.26 ± 0.07 | – |
| CCCCNc1ccc2c(c1)Oc1cc(OC(C)=O)ccc1C21OC(=O)c2cc(C(=O)Nc3ccc(N(CC(=O)OCOC(C)=O)CC(=O)OCOC(C)=O)c(OC)c3)ccc21 (centres unmarked) [Compound 8h, bis(acetoxymethyl) 2,2′-((4-(3′-acetoxy-6′-(butylamino)-3-oxo-3H-spiro[isobenzofuran-1,9′-xanthen]-5-ylcarboxamido)-2-methoxyphenyl)azanediyl)diacetate] | 511 | 48000 | 533 | 3.50 ± 0.07 | – |
| Cc1cc(NC(=O)Nc2ccc(F)c(F)c2)n(-c2ccccc2)n1 [ML297] | – | – | – | – | EC50 ([3]; dye 8c (5 μM, 1 h), FluxOR Red kit with background suppressor, 1 mM Tl^+): 257 ± 3.7 nM; pEC50 and standard error of ML297 activation ([3]; dye 8c (544x/593m filters), FluxOR Red Kit, Background Suppressor +): 6.63 ± 0.01; pEC50 and standard error of ML297 activation ([3]; dye 8c (544x/593m filters), FluxOR Red Kit, Background Suppressor −): 6.66 ± 0.04; pEC50 and standard error of ML297 activation ([3]; dye 8c, FluxOR Red Kit, Background Suppressor +): 6.59 ± 0.01; pEC50 and standard error of ML297 activation ([3]; dye 8c, FluxOR Red Kit, Background Suppressor −): 6.61 ± 0.02; pEC50 and standard error of ML297 activation ([3]; dye 8c, HCO3^− Stimulus Buffer, 1 mM Allura Red AC +): 6.69 ± 0.01; pEC50 and standard error of ML297 activation ([3]; dye 8c, HCO3^− Stimulus Buffer, 1 mM Allura Red AC −): 6.59 ± 0.03; EC50 ([3]; dye 8c, bicarbonate stimulus buffer, 500 μM Tl^+, no-wash, 1 mM Allura Red AC): 204 ± 5.2 nM; pEC50 and standard error of ML297 activation ([3]; dye FluxOR Red, FluxOR Red Kit, Background Suppressor +): 6.64 ± 0.01; pEC50 and standard error of ML297 activation ([3]; dye FluxOR Red, FluxOR Red Kit, Background Suppressor −): 6.41 ± 0.03; pEC50 and standard error of ML297 activation ([3]; dye FluxOR Red, HCO3^− Stimulus Buffer, 1 mM Allura Red AC −): 7.02 ± 0.1; pEC50 and standard error of ML297 activation ([3]; dye Thallos, FluxOR Red Kit, Background Suppressor +): 6.57 ± 0.04; pEC50 and standard error of ML297 activation ([3]; dye Thallos, FluxOR Red Kit, Background Suppressor −): 6.65 ± 0.02; pEC50 and standard error of ML297 activation ([3]; dye Thallos, HCO3^− Stimulus Buffer, 1 mM Allura Red AC +): 6.66 ± 0.01; pEC50 and standard error of ML297 activation ([3]; dye Thallos, HCO3^− Stimulus Buffer, 1 mM Allura Red AC −): 6.61 ± 0.01; EC50 ([3]; dye Thallos, bicarbonate stimulus buffer, 500 μM Tl^+, no-wash, 1 mM Allura Red AC): 219 ± 23 nM; EC50 ([3]; dye Thallos, same procedure (FluxOR Red kit with background suppressor)): 272 ± 23 nM |
